For 5 compounds, % of control and IC50 results are on record in ChEMBL document CHEMBL5465560, “Selectivity Literature for EUbOPEN Chemogenomic Library” (2024).

For assay [1], the target named is Dual specificity tyrosine-phosphorylation-regulated kinase 1A (Homo sapiens, UniProt Q13627). The conditions noted are these: at 10 µM.
Assay [2] concerns the target T1, Serine/threonine-protein kinase RIO3 (Homo sapiens) (UniProt O14730).
T1 sequence (whole entry): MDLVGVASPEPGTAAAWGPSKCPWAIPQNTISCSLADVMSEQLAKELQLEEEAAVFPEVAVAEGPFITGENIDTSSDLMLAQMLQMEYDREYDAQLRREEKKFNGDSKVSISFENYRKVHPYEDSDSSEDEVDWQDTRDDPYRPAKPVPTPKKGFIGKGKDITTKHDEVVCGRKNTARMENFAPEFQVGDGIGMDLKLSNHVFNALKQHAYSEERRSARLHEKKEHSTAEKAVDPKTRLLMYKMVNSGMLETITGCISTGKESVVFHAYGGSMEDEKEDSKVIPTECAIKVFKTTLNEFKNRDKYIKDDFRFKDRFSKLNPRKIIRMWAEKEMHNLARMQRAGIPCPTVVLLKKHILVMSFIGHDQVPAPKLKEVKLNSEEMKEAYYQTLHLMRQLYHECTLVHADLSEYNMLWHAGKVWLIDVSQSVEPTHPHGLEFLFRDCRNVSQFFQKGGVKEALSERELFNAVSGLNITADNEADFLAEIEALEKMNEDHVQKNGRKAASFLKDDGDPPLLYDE
The assay can be described thus: Selectivity interaction (KinomeScan (DiscoverX)) EUB0001619a RIOK3. Particulars: at 1 µM.

Assay [3] is described as follows: Selectivity interaction (Calcium Channel (L) receptor assay: rat brain ) EUB0000877a CACNA1C.
The target of assay [4] is T2, Serine/threonine-protein kinase Chk1 (Homo sapiens) (UniProt O14757).
T2 sequence (whole entry): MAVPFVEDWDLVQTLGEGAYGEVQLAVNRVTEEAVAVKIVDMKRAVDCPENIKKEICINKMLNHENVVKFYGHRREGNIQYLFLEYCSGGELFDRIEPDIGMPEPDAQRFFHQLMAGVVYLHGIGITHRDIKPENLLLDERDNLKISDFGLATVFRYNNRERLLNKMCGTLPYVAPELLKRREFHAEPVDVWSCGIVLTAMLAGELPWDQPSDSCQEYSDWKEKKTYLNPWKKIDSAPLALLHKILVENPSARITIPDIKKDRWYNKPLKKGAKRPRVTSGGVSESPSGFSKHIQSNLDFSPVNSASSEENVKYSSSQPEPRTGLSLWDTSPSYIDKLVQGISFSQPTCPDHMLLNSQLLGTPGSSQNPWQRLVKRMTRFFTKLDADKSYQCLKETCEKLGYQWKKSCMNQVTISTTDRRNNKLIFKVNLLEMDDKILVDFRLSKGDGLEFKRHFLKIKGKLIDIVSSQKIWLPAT
Particulars: at 10 µM.

The target of assay [5] is T3, Eukaryotic translation initiation factor 2-alpha kinase 3 (Homo sapiens) (UniProt Q9NZJ5).
T3 sequence (whole entry): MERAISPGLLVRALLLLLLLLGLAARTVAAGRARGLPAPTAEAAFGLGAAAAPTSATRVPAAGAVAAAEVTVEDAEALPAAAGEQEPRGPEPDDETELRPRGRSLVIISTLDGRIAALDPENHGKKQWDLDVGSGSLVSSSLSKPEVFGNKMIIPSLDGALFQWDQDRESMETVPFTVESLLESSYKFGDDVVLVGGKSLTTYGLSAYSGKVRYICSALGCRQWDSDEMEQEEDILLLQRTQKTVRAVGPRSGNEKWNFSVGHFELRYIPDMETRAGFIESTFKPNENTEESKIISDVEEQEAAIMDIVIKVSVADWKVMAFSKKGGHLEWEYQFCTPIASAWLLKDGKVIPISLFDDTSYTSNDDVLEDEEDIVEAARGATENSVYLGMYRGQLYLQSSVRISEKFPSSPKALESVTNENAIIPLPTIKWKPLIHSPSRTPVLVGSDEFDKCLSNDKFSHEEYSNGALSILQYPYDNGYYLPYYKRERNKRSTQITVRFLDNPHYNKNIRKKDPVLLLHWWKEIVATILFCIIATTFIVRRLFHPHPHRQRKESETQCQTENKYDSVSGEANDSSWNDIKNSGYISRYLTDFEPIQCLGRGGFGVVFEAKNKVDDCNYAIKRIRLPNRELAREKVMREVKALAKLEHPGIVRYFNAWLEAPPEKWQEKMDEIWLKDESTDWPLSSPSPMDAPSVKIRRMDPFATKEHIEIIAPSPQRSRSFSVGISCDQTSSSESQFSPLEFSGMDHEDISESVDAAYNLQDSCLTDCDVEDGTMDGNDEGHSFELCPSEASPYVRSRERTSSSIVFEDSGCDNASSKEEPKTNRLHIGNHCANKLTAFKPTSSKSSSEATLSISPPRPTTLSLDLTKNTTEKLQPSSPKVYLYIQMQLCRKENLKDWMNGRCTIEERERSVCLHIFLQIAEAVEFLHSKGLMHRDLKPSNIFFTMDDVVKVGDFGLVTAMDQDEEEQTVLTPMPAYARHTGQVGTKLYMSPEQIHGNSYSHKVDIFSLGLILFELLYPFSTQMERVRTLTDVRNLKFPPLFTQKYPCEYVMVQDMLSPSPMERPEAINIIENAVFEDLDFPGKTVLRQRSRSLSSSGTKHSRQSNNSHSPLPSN
In words: Selectivity interaction (ProQinase) EUB0000171b EIF2AK3.

As to `Cc1cc([C@@H](C)Nc2ccccc2C(=O)O)c2nc(N3CCOCC3)cc(=O)n2c1` [AZD-6482], the % of control in assay [1] was 90%. The compound `N#Cc1cccc(-c2c[nH]c3ncnc(N4CCOCC4)c23)c1` gave a % of control in assay [2] of 4.8%. Regarding `CCC(=O)N1CC[C@H](Nc2ncnc3c2CN(c2cnc(OC)c(C(F)(F)F)c2)CC3)C1` [LENIOLISIB], the half-maximal inhibitory concentration (IC50) in assay [3] is greater than 30 µM. In assay [4], `CCN(CC)CCCCNc1ncc2cc(-c3cc(OC)cc(OC)c3)c(NC(=O)NC(C)(C)C)nc2n1` yielded a % of control of 100%. Consider `C=CC(=O)Nc1cccc(C(=O)Nc2ccc(Nc3cc(-c4[nH]c(SC)nc4C)ccn3)cc2)c1`, for which the values for the % of control in assay [5] (at 1 µM) and in assay [5] (at 5 µM) were 92% and 97%, respectively.

Broadly, the IC50 is the concentration that gives 50% inhibition.
